The test system of series [1] is HCV genotype 1b subgenomic replicon (2209-23 cells). The experiment in a line: HCV Replicon assay (Renilla luciferase reporter). The class given is cell-based. The note with it: Hepatitis C virus, Huh-7, 72 h; genotype 1b replicon, 2209-23 Huh7 cells, three days incubation, Renilla luciferase readout.
The nature of the next series: in vitro. The note with it: human.

Molecules are shown by their SMILES.

What is called IC50 is the concentration needed to halve the response being measured. Lower therefore signals inhibition by little substance. Regarding `CC(C)OC(=O)[C@H](C)NP(=O)(OC[C@@]1(N=[N+]=[N-])O[C@@H](n2ccc(N)nc2=O)[C@H](O)[C@@H]1F)Oc1cccc2ccccc12` (stereo partly drawn) [Compound I-4, (S)-2-[[(2R,3S,4S,5R)-5-(4-Amino-2-oxo-2H-pyrimidin-1-yl)-2-azido-3-fluoro-4-hydroxy-tetrahydro-furan-2-ylmethoxy]-(naphthalen-1-yloxy)-phosphorylamino]-propionic acid isopropyl ester], the half-maximal inhibitory concentration (IC50) in series [1] is > 100 µM. Further, in the series “in vitro”, the CC50 was > 100 µM.
In the case of `CCOC(=O)[C@H](C)NP(=O)(OC[C@@]1(N=[N+]=[N-])O[C@@H](n2ccc(=O)[nH]c2=O)[C@H](O)[C@@H]1F)Oc1cccc2ccccc12` (stereo partly drawn) [Compound I-3, (S)-2-[[(2R,3S,4S,5R)-2-Azido-5-(2,4-dioxo-3,4-dihydro-2H-pyrimidin-1-yl)-3-fluoro-4-hydroxy-tetrahydro-furan-2-ylmethoxy]-(naphthalen-1-yloxy)-phosphorylamino]-propionic acid ethyl ester], the IC50 in series [1] came out at 79.1 µM. The CC50 in “in vitro” was > 100 µM.
The matching figures for `CCOC(=O)[C@H](C)NP(=O)(OC[C@@]1(N=[N+]=[N-])O[C@@H](n2ccc(=O)[nH]c2=O)[C@H](O)[C@@H]1F)Oc1ccccc1` (stereo partly drawn) [Compound I-2, (S)-2-{[(2R,3S,4S,5R)-2-Azido-5-(2,4-dioxo-3,4-dihydro-2H-pyrimidin-1-yl)-3-fluoro-4-hydroxy-tetrahydro-furan-2-ylmethoxy]-phenoxy-phosphorylamino}-propionic acid ethyl ester]: 39.8 µM and > 100 µM.
The matching figures for `CC(C)OC(=O)[C@H](C)NP(=O)(O)OC[C@@]1(N=[N+]=[N-])O[C@@H](n2ccc(N)nc2=O)[C@H](O)[C@@H]1F` [Compound I-8, (S)-2-{[(2R,3S,4S,5R)-5-(4-Amino-2-oxo-2H-pyrimidin-1-yl)-2-azido-3-fluoro-4-hydroxy-tetrahydro-furan-2-ylmethoxy]-hydroxy-phosphorylamino}-propionic acid isopropyl ester]: > 100 µM and > 100 µM.
Consider `CC(C)OC(=O)[C@H](C)NP(=O)(OC[C@@]1(N=[N+]=[N-])O[C@@H](n2ccc(N)nc2=O)[C@H](O)[C@@H]1F)Oc1ccccc1` (stereo partly drawn) [Compound I-7, (S)-2-{[(2R,3S,4S,5R)-5-(4-Amino-2-oxo-2H-pyrimidin-1-yl)-2-azido-3-fluoro-4-hydroxy-tetrahydro-furan-2-ylmethoxy]-phenoxy-phosphorylamino}-propionic acid isopropyl ester], for which 56 µM corresponded to half-maximal inhibition in series [1] (IC50). Also, the CC50 in “in vitro” is > 100 µM.
The matching figures for `CC(C)OC(=O)[C@H](C)NP(=O)(OC[C@@]1(N=[N+]=[N-])O[C@@H](n2ccc(=O)[nH]c2=O)[C@H](O)[C@@H]1F)Oc1ccccc1` (stereo partly drawn) [Compound I-1, (S)-2-{[(2R,3S,4S,5R)-2-Azido-5-(2,4-dioxo-3,4-dihydro-2H-pyrimidin-1-yl)-3-fluoro-4-hydroxy-tetrahydro-furan-2-ylmethoxy]-phenoxy-phosphorylamino}-propionic acid isopropyl ester]: > 100 µM and > 100 µM.
For the compound `C[C@H](NP(=O)(OC[C@@]1(N=[N+]=[N-])O[C@@H](n2ccc(N)nc2=O)[C@H](O)[C@@H]1F)Oc1cccc2ccccc12)C(=O)OCc1ccccc1` (stereo partly drawn) [Compound I-5, (S)-2-[[(2R,3S,4S,5R)-5-(4-Amino-2-oxo-2H-pyrimidin-1-yl)-2-azido-3-fluoro-4-hydroxy-tetrahydro-furan-2-ylmethoxy]-(naphthalen-1-yloxy)-phosphorylamino]-propionic acid benzyl ester], in series [1], the concentration for half-maximal inhibition (IC50) was 1.54 µM. This compound also showed a CC50 in “in vitro” of 91.2 µM.
The matching figures for `CCC(=O)O[C@H]1[C@H](n2ccc(N)nc2=O)O[C@@](COP(=O)(N[C@@H](C)C(=O)OC(C)C)Oc2cccc3ccccc23)(N=[N+]=[N-])[C@H]1F` (stereo partly drawn) [Compound I-9, (S)-2-[[(2R,3S,4S,5R)-5-(4-Amino-2-oxo-2H-pyrimidin-1-yl)-2-azido-3-fluoro-4-propionyloxy-tetrahydro-furan-2-ylmethoxy]-(naphthalen-1-yloxy)-phosphorylamino]-propionic acid isopropyl ester]: 27 µM and 58 µM.
The corresponding values for `CCOC(=O)[C@H](C)NP(=O)(OC[C@@]1(N=[N+]=[N-])O[C@@H](n2ccc(N)nc2=O)[C@H](O)[C@@H]1F)Oc1cccc2ccccc12` (stereo partly drawn) [Compound I-6, (S)-2-[[(2R,3S,4S,5R)-5-(4-Amino-2-oxo-2H-pyrimidin-1-yl)-2-azido-3-fluoro-4-hydroxy-tetrahydro-furan-2-ylmethoxy]-(naphthalen-1-yloxy)-phosphorylamino]-propionic acid ethyl ester] are 32 µM and > 100 µM.

(Values after patent publication US9708357B2, “4′-azido, 3′-fluoro substituted nucleoside derivatives as inhibitors of HCV RNA replication” (Riboscience LLC, priority 2011, dated 2017).)
